For the assay, the system named is SK-ES-1. Briefly: relative viability vs DMSO control (72 h) (fraction); higher = more viable cells. In a few lines:
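Serially diluted compound, 2.5 µl from source plates spanning 10 mM to 0.0002 mM, was added 24 h after sarcoma cell lines were seeded in 384-well plates at densities targeting 80–90% confluence. Plates then sat 72 h at 37 °C, 5% CO2, with 0.1% DMSO vehicle and a 5 µM positive control. Relative viability came from ATPLite as percent growth, averaged over up to triplicate wells, and was rescaled with 1 as full and 0 as none.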

Each structure is given as a SMILES string. ± gives the standard deviation of the averaged measurements.

On to `C[C@]1(O)C[C@@H](c2nc(-c3ccc4ccc(-c5ccccc5)nc4c3)c3c(N)nccn32)C1` [Linsitinib], for which the relative viability is, setting by setting: (0.00017 µM) 1.05 ± 0.039; (0.00051 µM) 1.05 ± 0.034; (0.00152 µM) 1.08 ± 0.019; (0.00457 µM) 1.07 ± 0.051; (0.01372 µM) 1.03 ± 0.067; (0.04115 µM) 0.967 ± 0.038. The relative viability by setting is: (0.1235 µM) 0.75 ± 0.026; (0.3704 µM) 0.479 ± 0.042; (1.111 µM) 0.341 ± 0.013; (3.333 µM) 0.308 ± 0.013; (10 µM) 0.21 ± 0.0051.
With `C=CC(=O)N1CCC([C@@H]2CCNc3c(C(N)=O)c(-c4ccc(Oc5ccccc5)cc4)nn32)CC1` [Zanubrutinib], the relative viability was found to be 0.906 ± 0.065 (0.00017 µM); 0.938 ± 0.088 (0.00051 µM); 0.994 ± 0.05 (0.00152 µM); 0.984 ± 0.083 (0.00457 µM); 0.949 ± 0.043 (0.01372 µM); 0.953 ± 0.029 (0.04115 µM). The relative viability reads like this: (0.1235 µM) 0.934 ± 0.041; (0.3704 µM) 0.953 ± 0.057; (1.111 µM) 0.894 ± 0.069; (3.333 µM) 0.903 ± 0.031; (10 µM) 0.845 ± 0.038.
With `Cn1cc(-c2cc3c(N4CCN(c5ncc([C@@](C)(N)c6ccc(F)cc6)cn5)CC4)ncnn3c2)cn1` [Avapritinib], the relative viability came out at 0.98 ± 0.026 (0.00017 µM); 0.981 ± 0.045 (0.00051 µM); 0.941 ± 0.011 (0.00152 µM); 1 ± 0.018 (0.00457 µM); 0.989 ± 0.05 (0.01372 µM); 0.96 ± 0.042 (0.04115 µM). Also, the relative viability was determined as 0.948 ± 0.027 (0.1235 µM); 0.975 ± 0.036 (0.3704 µM); 0.906 ± 0.018 (1.111 µM); 0.778 ± 0.071 (3.333 µM); 0.579 ± 0.022 (10 µM).
In the case of `CC(=O)Nc1cccc(-n2c(=O)n(C3CC3)c(=O)c3c(Nc4ccc(I)cc4F)n(C)c(=O)c(C)c32)c1` [Trametinib], the relative viability runs as follows: (0.00017 µM) 1.03 ± 0.035; (0.00051 µM) 1.04 ± 0.025; (0.00152 µM) 0.987 ± 0.031; (0.00457 µM) 0.99 ± 0.028; (0.01372 µM) 0.937 ± 0.077; (0.04115 µM) 0.984 ± 0.063. The relative viability was 0.976 ± 0.031 (0.1235 µM); 0.969 ± 0.048 (0.3704 µM); 0.962 ± 0.05 (1.111 µM); 0.948 ± 0.059 (3.333 µM); 0.923 ± 0.017 (10 µM).

Values taken from the supplement of paper PMC10883282.
